One assay deals with NDM-1 (Klebsiella pneumoniae, UniProt C7C422). Nature of the assay: biochemical. It counts as biochemical. As to conditions: read-out: NDM-1 IC50.
For the next assay, the target named is IMP-1 (Serratia marcescens, UniProt P52699). Nature of the assay: biochemical. It counts as biochemical. As to conditions: read-out: IMP-1 IC50.
Assay [1] deals with Escherichia coli expressing NDM-1 (CLB30016). Nature of the assay: Antibiotic potentiation activity: synergistic concentration (MITC95) with imipenem, OD600 growth. The class given is cell-based. On the procedure: (§1) Antibiotic Potentiation Activity: Determination of Synergistic Concentration
(§2) The bacterial strains tested included the clinical strains Escherichia coli expressing NDM-1 (CLB30005, CLB30016), Serratia marcescens expressing IMP-1 (CL5741), and Klebsiella pneumoniae expressing VIM-1 (IHMA599644) Inhibitor activity was measured in the presence and absence of imipenem in a 384-well microplate.
(§3) The clinical strains CLB30016, CL5741 and IHMA599644 were grown on trypticase soy agar containing 5% sheep's blood. The clinical strain CLB30005 was grown on Mueller Hinton broth agar containing 8 ug/ml imipenem. The bacteria on agar plates were incubated at 35° C. with humidity overnight. The following day, individual colonies from each clinical strain were picked and resuspended in 5 ml saline to attain an OD600 of 0.14, 0.11, 0.15 and 0.13, for CLB30005, CLB30016, CL5741 and IHMA599644, respectively. These were further diluted 1:100 into 1.1×CAMHB and used to inoculate the test wells as described below.
(§4) Imipenem in 10 mM 3-(N-morpholino)propanesulfonic acid (MOPS, pH 7) was stored in single use aliquots at −80° C. […] On the day of the assay, 4 μl of antibiotic was added to 45 ul of bacteria followed by 1 μl of test compound and mixed by pipetting and with an orbital shaker. The concentration of antibiotic used in the assay was 4 μg/ml, or optionally 1 μg/ml. Microplates were covered and incubated at 35° C. for 22 hours to 24 hours. At the end of the incubation, absorbance was determined using a spectrophotometer.

The subject of assay [2] is Klebsiella pneumoniae expressing VIM-1 (IHMA599644). The description is as above. It counts as cell-based. How it is done:
as §1, §2, §3, §4

The subject of assay [3] is Serratia marcescens expressing IMP-1 (CL5741). The description is as above. It counts as cell-based. How it is done: as §1, §2, §3, §4
The mark [4] stands for this setting: NDM-1 enzyme, CCF2-FA fluorescence assay.
The mark [5] stands for this setting: IMP-1 enzyme, CCF2-FA fluorescence assay.
[6] abbreviates: Escherichia coli expressing NDM-1 (CLB30016), 95% growth inhibition.
[7] abbreviates: Klebsiella pneumoniae expressing VIM-1 (IHMA599644), 95% growth inhibition.
[8] abbreviates: Serratia marcescens expressing IMP-1 (CL5741), 95% growth inhibition.
The mark [9] stands for this setting: NDM-1 enzyme, CCF2-FA substrate.
[10] abbreviates: IMP-1 enzyme, CCF2-FA substrate.
[11] abbreviates: (CLB30016, NDM-1), 95% growth inhibition.
[12] abbreviates: Klebsiella pneumoniae IHMA599644 (VIM-1), 95% growth inhibition.
The mark [13] stands for this setting: Serratia marcescens CL5741 (IMP-1), 95% growth inhibition.
Where [14] appears, read: fluorescence assay with CCF2-FA substrate.
The mark [15] stands for this setting: CLB30016 (NDM-1), 95% inhibition of bacterial growth.
[16] abbreviates: IHMA599644 (VIM-1), 95% inhibition of bacterial growth.
Where [17] appears, read: CL5741 (IMP-1), 95% inhibition of bacterial growth.

The structures appear in SMILES notation. Where two headings read alike, the source gives them in different places.

IMP-1, sequence (P52699 whole entry, looked up): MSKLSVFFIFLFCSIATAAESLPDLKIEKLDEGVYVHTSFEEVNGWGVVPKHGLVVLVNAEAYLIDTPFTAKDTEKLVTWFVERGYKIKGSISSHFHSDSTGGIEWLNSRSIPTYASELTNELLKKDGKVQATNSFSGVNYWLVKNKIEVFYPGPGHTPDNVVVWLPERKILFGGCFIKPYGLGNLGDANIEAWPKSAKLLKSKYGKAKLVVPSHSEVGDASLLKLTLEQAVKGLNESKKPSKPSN
NDM-1, sequence (C7C422 whole entry, looked up, species assumed): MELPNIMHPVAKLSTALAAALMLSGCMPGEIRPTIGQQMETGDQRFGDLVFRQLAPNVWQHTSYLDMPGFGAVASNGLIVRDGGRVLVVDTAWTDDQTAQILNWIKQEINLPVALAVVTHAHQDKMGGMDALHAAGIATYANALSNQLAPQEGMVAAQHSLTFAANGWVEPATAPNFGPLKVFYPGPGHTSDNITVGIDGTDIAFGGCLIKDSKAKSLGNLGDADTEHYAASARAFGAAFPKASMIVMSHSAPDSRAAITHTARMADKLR

As usually defined, the IC50 is the midpoint of a concentration-inhibition curve. Turning to `NS(=O)(=O)c1c(C(F)(F)F)ccc(-c2ccc3nccn3c2)c1-c1nnn[nH]1` [Example 481, 3-imidazo[1,2-a]pyridin-6-yl-2-(1H-tetrazol-5-yl)-6-(trifluoromethyl)benzenesulfonamide], the figures for the concentration for half-maximal inhibition (IC50) at NDM-1 (setting [4]) and on IMP-1 (setting [5]) were 1.46 nM and 7.11 nM, respectively. In addition, the “Escherichia coli MITC95” value in assay [1] (setting [6]) was found to be 0.125 µM. For the same molecule, in assay [2] (setting [7]), the “Klebsiella pneumoniae MITC95” value was determined as 1.922 µM. Also, the “Serratia marcescens MITC95” value in assay [3] (setting [8]) stood at 0.543 µM.

As to `NS(=O)(=O)c1c(C(F)(F)F)ccc(-c2ccc3nccn3c2)c1-c1nnn[nH]1` [Example 484, 3-(Imidazo[1,2-a]pyridin-6-yl)-2-(1H-tetrazol-5-yl)-6-(trifluoromethyl)benzenesulfonamide], the half-maximal inhibitory concentration (IC50) came to 1.22 nM at NDM-1 (setting [4]) and 6.58 nM at IMP-1 (setting [5]). The “Escherichia coli MITC95” value in assay [1] (setting [6]) stood at 0.25 µM. Besides, the “Klebsiella pneumoniae MITC95” value in assay [2] (setting [7]) amounted to 1.708 µM. The “Serratia marcescens MITC95” value in assay [3] (setting [8]) amounted to 0.3828 µM.

As for `NS(=O)(=O)c1c(C(F)(F)F)ccc(C2CCC2)c1-c1nnn[nH]1` [Example 492, 3-cyclobutyl-2-(1H-tetrazol-5-yl)-6-(trifluoromethyl)benzenesulfonamide], the IC50 at NDM-1 (setting [9]) worked out at 17.3 nM; at IMP-1 (setting [10]) it was 16 nM. For the same molecule, the “Escherichia coli MITC95” value in assay [1] (setting [11]) amounted to 3.125 µM. Further, the “Klebsiella pneumoniae MITC95” value in assay [2] (setting [12]) was 12.5 µM. Moreover, in assay [3] (setting [13]), the “Serratia marcescens MITC95” value amounted to 0.3906 µM.

Regarding `Nc1nc2cncc(-c3ccc(C(F)(F)F)c(S(N)(=O)=O)c3-c3nnn[nH]3)c2[nH]1` [Example 571, 3-(2-amino-1H-imidazo[4,5-c]pyridin-7-yl)-2-(1H-tetrazol-5-yl)-6-(trifluoromethyl)benzenesulfonamide], the half-inhibitory concentration (IC50) at NDM-1 (setting [9]) was 1.71 nM; at IMP-1 (setting [10]) it was 14.8 nM. The “Escherichia coli MITC95” value in assay [1] (setting [11]) is 0.7813 µM. Further, the “Klebsiella pneumoniae MITC95” value in assay [2] (setting [12]) amounted to 6.25 µM. The “Serratia marcescens MITC95” value in assay [3] (setting [13]) is 3.125 µM.

For `NS(=O)(=O)c1c(CC2CCNCC2)ccc(-c2ccc(C3CCNC3)cc2)c1-c1nn[nH]n1` (stereo not shown) [Example 588, 4-(piperidin-4-ylmethyl)-4′-(pyrrolidin-3-yl)-2-(2H-tetrazol-5-yl)-[1,1′-biphenyl]-3-sulfonamide], the IC50 came to 6.27 nM at NDM-1 (setting [9]) and 28.8 nM at IMP-1 (setting [10]). In addition, the “Escherichia coli MITC95” value in assay [1] (setting [11]) worked out at 1.563 µM. The “Klebsiella pneumoniae MITC95” value in assay [2] (setting [12]) was determined as 1.563 µM. In assay [3] (setting [13]), the “Serratia marcescens MITC95” value came out at 3.125 µM.

Consider `NS(=O)(=O)c1cccc(-c2ccc(NC3CCNC3)nc2)c1-c1nnn[nH]1` (stereo not shown) [Example 628, 3-[6-(pyrrolidin-3-ylamino)-3-pyridyl]-2-(1H-tetrazol-5-yl)benzenesulfonamide], for which the IC50 at NDM-1 (setting [9]) is 45 nM; at IMP-1 (setting [10]), 650 nM. Also, the “Escherichia coli MITC95” value in assay [1] (setting [11]) worked out at 0.9766 µM. Besides, the “Klebsiella pneumoniae MITC95” value in assay [2] (setting [12]) was 12.5 µM. The “Serratia marcescens MITC95” value in assay [3] (setting [13]) turned out to be 12.5 µM.

Regarding `NCCNc1ccc(-c2cccc(S(N)(=O)=O)c2-c2nnn[nH]2)cn1` [Example 634, 3-[6-(2-aminoethylamino)-3-pyridyl]-2-(1H-tetrazol-5-yl)benzenesulfonamide], the IC50 at NDM-1 (setting [9]) is 14.1 nM; on IMP-1 (setting [10]), 1280 nM. For the same molecule, in assay [1] (setting [11]), the “Escherichia coli MITC95” value worked out at 0.5859 µM. Besides, the “Klebsiella pneumoniae MITC95” value in assay [2] (setting [12]) came to 6.25 µM. Further, the “Serratia marcescens MITC95” value in assay [3] (setting [13]) amounted to 18.75 µM.

Turning to `NS(=O)(=O)c1c(C(F)(F)F)ccc(N2CCN3C(=O)OCC3C2)c1-c1nnn[nH]1` (stereo not shown) [Example 667, 3-(3-oxotetrahydro[1,3]oxazolo[3,4-a]pyrazin-7(1H)-yl)-2-(1H-tetrazol-5-yl)-6-(trifluoromethyl)benzenesulfonamide], the half-inhibitory concentration (IC50) on NDM-1 (setting [9]) worked out at 19.7 nM; on IMP-1 (setting [10]), 75 nM. In addition, the “Escherichia coli MITC95” value in assay [1] (setting [11]) was 3.125 µM. For the same molecule, in assay [2] (setting [12]), the “Klebsiella pneumoniae MITC95” value was 9.375 µM. The “Serratia marcescens MITC95” value in assay [3] (setting [13]) was determined as 2.344 µM.

As for `NS(=O)(=O)c1c(C(F)(F)F)ccc([C@H]2CC[C@H](NC3CC[C@H]4NCC[C@@H]34)CC2)c1-c1nnn[nH]1` (stereo partly drawn) [Example 692, 3-{4-[(3aR,6aR)-octahydrocyclopenta[b]pyrrol-4-ylamino]cyclohexyl}-2-(1H-tetrazol-5-yl)-6-(trifluoromethyl)benzene sulfonamide], the IC50 on NDM-1 (setting [9]) came to 6.36 nM; on IMP-1 (setting [10]), 19.8 nM. For the same molecule, the “Escherichia coli MITC95” value in assay [1] (setting [11]) came to 1.563 µM. Moreover, the “Klebsiella pneumoniae MITC95” value in assay [2] (setting [12]) is 6.25 µM. Moreover, the “Serratia marcescens MITC95” value in assay [3] (setting [13]) is 3.125 µM.

As to `NC1CCN(C2CCN(c3ccc(C(F)(F)F)c(S(N)(=O)=O)c3-c3nnn[nH]3)CC2)C1` (stereo not shown) [Example 768, 3-[4-(3-aminopyrrolidin-1-yl)piperidin-1-yl]-2-(1H-tetrazol-5-yl)-6-(trifluoromethyl) benzenesulfonamide], the half-maximal inhibitory concentration (IC50) at NDM-1 (setting [14]) came to 24.6 nM; at IMP-1 (setting [14]), 36.7 nM. For the same molecule, in assay [1] (setting [15]), the “Escherichia coli MITC95” value was 12.5 µM. The “Klebsiella pneumoniae MITC95” value in assay [2] (setting [16]) came out at 3.125 µM. In addition, the “Serratia marcescens MITC95” value in assay [3] (setting [17]) turned out to be 6.25 µM.

In the case of `NC1CCCC1N1CCC(c2ccc(-c3ccc(C(F)(F)F)c(S(N)(=O)=O)c3-c3nnn[nH]3)cc2)CC1` (stereo not shown) [Example 791, 4′-[1-(2-aminocyclopentyl)piperidin-4-yl]-2-(1H-tetrazol-5-yl)-4-(trifluoromethyl)biphenyl-3-sulfonamide], the concentration for half-maximal inhibition (IC50) at NDM-1 (setting [14]) was 6.26 nM; at IMP-1 (setting [14]) it was 1.2 nM. For the same molecule, the “Escherichia coli MITC95” value in assay [1] (setting [15]) is 0.7813 µM. In assay [2] (setting [16]), the “Klebsiella pneumoniae MITC95” value is 50 µM. Further, in assay [3] (setting [17]), the “Serratia marcescens MITC95” value worked out at 1.563 µM.

As to `NC1CCCC(N2CCC(c3ccc(-c4ccc(C(F)(F)F)c(S(N)(=O)=O)c4-c4nnn[nH]4)cc3)CC2)C1` (stereo not shown) [Example 798, 4′-[1-(3-aminocyclohexyl)piperidin-4-yl]-2-(1H-tetrazol-5-yl)-4-(trifluoromethyl)biphenyl-3-sulfonamide], the IC50 stood at 6.05 nM on NDM-1 (setting [14]) and 2.35 nM at IMP-1 (setting [14]). The “Escherichia coli MITC95” value in assay [1] (setting [15]) amounted to 1.563 µM. Also, the “Klebsiella pneumoniae MITC95” value in assay [2] (setting [16]) came to 25 µM. In addition, in assay [3] (setting [17]), the “Serratia marcescens MITC95” value came out at 3.125 µM.

For `NS(=O)(=O)c1c(C(F)(F)F)ccc(-c2ccc(C3CN(CC4CCNCC4)C3)cc2)c1-c1nnn[nH]1` [Example 804, 4′-[1-(piperidin-4-ylmethyl)azetidin-3-yl]-2-(1H-tetrazol-5-yl)-4-(trifluoromethyl)biphenyl-3-sulfonamide], the IC50 was 3.85 nM on NDM-1 (setting [14]) and 5.78 nM on IMP-1 (setting [14]). The “Escherichia coli MITC95” value in assay [1] (setting [15]) turned out to be 3.125 µM. Further, the “Klebsiella pneumoniae MITC95” value in assay [2] (setting [16]) stood at 50 µM. In addition, the “Serratia marcescens MITC95” value in assay [3] (setting [17]) amounted to 6.25 µM.

Regarding `NC1CCC(N2CC(c3ccc(-c4ccc(C(F)(F)F)c(S(N)(=O)=O)c4-c4nnn[nH]4)cc3)C2)CC1` (stereo not shown) [Example 809, 4′-[1-(4-aminocyclohexyl)azetidin-3-yl]-2-(1H-tetrazol-5-yl)-4-(trifluoromethyl)biphenyl-3-sulfonamide], the figures for the concentration for half-maximal inhibition (IC50) on NDM-1 (setting [14]) and on IMP-1 (setting [14]) were 4.02 nM and 11.3 nM, respectively. Besides, the “Escherichia coli MITC95” value in assay [1] (setting [15]) stood at 3.125 µM. Besides, in assay [2] (setting [16]), the “Klebsiella pneumoniae MITC95” value worked out at 50 µM. Also, the “Serratia marcescens MITC95” value in assay [3] (setting [17]) was 6.25 µM.

The record behind these values is US9708336B2, “Metallo-beta-lactamase inhibitors” (priority 2014, dated 2017).
